Source: ChEMBL document CHEMBL5465560, “Selectivity Literature for EUbOPEN Chemogenomic Library” (2024)
One block for each molecule: values may come before it.

Key:
[1] = target: Cyclin-dependent kinase 8 (Homo sapiens, UniProt P49336); experiment: Selectivity interaction (KinomeScan (DiscoverX)) EUB0000666a CDK8; details: at 10 µM
[2] = target: T1, cGMP-dependent protein kinase 2 (Homo sapiens) (UniProt Q13237); experiment: Selectivity interaction (Kinase panel (Invitrogen)) EUB0000639a PRKG2; details: at 200 nM
T1 sequence (whole entry): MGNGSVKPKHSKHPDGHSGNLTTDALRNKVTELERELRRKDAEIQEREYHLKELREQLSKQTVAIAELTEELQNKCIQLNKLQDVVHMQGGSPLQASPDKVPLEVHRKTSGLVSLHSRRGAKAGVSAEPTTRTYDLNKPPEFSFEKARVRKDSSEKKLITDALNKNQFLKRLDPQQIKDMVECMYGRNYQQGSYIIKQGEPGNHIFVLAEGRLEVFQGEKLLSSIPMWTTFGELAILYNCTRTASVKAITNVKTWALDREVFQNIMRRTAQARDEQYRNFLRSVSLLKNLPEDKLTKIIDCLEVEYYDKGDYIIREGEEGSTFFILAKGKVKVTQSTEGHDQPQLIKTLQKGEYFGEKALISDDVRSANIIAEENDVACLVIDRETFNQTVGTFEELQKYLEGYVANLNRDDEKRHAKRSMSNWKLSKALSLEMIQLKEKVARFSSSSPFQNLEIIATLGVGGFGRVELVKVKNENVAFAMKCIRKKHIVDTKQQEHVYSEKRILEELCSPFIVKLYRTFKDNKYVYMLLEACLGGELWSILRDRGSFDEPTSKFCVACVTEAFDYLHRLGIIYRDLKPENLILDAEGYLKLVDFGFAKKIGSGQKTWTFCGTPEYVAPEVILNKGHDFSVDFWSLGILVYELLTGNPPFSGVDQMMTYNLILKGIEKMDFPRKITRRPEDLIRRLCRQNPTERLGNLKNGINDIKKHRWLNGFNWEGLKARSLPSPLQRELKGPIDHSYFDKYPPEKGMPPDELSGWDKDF

[3] = target: SRSF protein kinase 2 (Homo sapiens) (UniProt P78362); experiment: Selectivity interaction (KinomeScan (DiscoverX)) EUB0001049a SRPK2; details: at 1 µM
Sequence of SRSF protein kinase 2 (Homo sapiens) (P78362 whole entry, looked up): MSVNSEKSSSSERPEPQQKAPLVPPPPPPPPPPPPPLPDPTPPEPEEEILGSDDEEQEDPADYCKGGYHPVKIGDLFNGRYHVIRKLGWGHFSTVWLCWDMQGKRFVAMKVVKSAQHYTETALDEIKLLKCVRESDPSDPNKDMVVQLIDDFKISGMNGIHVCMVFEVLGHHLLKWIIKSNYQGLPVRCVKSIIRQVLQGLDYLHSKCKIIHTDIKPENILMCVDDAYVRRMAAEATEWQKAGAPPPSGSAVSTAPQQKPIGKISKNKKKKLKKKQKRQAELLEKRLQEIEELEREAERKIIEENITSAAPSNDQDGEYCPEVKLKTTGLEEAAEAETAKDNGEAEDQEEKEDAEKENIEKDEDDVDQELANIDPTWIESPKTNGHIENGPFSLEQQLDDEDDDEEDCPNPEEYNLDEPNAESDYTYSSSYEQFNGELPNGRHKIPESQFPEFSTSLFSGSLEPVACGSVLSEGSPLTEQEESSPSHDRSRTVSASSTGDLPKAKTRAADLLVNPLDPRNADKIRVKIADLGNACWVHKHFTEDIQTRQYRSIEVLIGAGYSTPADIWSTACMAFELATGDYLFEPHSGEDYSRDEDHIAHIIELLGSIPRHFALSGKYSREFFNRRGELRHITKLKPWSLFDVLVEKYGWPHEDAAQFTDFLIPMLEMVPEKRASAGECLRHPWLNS

[4] = target: Serine/threonine-protein kinase 38-like (Homo sapiens) (UniProt Q9Y2H1); experiment: Selectivity interaction (Kinase panel (DSF assay)) EUB0001558a STK38L
Sequence of Serine/threonine-protein kinase 38-like (Homo sapiens) (Q9Y2H1 2-464 limits assumed): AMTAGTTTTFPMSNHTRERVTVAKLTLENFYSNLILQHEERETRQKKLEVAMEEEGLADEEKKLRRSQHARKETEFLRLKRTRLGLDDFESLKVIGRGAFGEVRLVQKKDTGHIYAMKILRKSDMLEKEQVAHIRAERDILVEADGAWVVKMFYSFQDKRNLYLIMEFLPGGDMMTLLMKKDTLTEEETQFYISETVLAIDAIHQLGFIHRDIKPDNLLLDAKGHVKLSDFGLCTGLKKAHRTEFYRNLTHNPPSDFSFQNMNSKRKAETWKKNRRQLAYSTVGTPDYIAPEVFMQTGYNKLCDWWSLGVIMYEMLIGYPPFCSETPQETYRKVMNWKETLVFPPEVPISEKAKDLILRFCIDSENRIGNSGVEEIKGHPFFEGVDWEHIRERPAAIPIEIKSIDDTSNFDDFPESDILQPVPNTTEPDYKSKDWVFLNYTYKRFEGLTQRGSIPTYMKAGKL

[5] = target: Homeodomain-interacting protein kinase 1 (Homo sapiens, UniProt Q86Z02); experiment: Selectivity interaction (KinomeScan (DiscoverX)) EUB0000655a HIPK1; details: at 10 µM
Sequence of Homeodomain-interacting protein kinase 1 (Q86Z02 whole entry, looked up): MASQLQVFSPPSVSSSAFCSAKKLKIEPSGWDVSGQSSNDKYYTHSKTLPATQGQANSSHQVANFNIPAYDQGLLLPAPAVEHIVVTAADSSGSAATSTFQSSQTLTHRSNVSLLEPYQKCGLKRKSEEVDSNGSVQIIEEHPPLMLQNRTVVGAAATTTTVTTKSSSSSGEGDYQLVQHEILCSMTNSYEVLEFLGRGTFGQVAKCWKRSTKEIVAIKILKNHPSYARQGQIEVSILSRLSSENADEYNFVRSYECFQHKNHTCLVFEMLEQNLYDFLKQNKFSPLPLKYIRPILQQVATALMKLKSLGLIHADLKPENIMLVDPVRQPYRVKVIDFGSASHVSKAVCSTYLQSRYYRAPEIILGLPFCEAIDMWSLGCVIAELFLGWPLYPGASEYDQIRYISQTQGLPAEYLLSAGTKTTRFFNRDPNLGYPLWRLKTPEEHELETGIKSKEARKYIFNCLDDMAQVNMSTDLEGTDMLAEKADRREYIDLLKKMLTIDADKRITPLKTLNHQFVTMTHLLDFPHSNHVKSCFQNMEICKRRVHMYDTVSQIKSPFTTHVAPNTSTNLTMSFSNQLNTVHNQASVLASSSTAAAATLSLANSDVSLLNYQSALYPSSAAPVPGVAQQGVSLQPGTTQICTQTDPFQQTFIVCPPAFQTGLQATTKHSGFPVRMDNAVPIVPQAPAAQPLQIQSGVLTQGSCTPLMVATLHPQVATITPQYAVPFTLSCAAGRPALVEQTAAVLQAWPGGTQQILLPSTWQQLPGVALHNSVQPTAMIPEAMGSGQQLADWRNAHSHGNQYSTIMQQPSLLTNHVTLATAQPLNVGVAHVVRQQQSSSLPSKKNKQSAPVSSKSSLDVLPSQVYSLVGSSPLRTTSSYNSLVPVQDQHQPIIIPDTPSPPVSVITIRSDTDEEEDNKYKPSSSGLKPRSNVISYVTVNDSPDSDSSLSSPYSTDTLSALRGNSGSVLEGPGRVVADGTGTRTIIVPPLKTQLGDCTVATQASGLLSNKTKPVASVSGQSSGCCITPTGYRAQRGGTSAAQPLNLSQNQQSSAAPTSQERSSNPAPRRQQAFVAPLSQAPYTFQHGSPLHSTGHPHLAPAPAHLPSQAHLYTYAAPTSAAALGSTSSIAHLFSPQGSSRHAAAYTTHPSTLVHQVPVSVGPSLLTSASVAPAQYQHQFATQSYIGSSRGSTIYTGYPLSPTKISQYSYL

[6] = target: Aurora kinase B (Homo sapiens, UniProt Q96GD4); experiment: Selectivity interaction (Kinase panel (Enzyme activity assay)) EUB0000612a AURKB
Sequence of Aurora kinase B (Q96GD4 whole entry): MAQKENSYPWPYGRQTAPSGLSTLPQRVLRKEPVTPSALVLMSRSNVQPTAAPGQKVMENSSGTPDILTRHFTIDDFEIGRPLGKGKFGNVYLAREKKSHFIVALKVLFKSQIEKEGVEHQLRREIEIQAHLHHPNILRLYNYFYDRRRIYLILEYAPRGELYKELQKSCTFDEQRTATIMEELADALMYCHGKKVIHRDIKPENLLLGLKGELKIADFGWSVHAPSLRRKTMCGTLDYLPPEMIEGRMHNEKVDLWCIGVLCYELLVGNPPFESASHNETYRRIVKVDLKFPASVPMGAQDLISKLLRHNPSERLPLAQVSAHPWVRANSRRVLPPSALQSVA

[7] = target: Serine/threonine-protein kinase N2 (Homo sapiens, UniProt Q16513); experiment: Selectivity interaction (KinomeScan (DiscoverX)) EUB0001079a PKN2; details: at 1 µM
Sequence of Serine/threonine-protein kinase N2 (Q16513 whole entry, looked up): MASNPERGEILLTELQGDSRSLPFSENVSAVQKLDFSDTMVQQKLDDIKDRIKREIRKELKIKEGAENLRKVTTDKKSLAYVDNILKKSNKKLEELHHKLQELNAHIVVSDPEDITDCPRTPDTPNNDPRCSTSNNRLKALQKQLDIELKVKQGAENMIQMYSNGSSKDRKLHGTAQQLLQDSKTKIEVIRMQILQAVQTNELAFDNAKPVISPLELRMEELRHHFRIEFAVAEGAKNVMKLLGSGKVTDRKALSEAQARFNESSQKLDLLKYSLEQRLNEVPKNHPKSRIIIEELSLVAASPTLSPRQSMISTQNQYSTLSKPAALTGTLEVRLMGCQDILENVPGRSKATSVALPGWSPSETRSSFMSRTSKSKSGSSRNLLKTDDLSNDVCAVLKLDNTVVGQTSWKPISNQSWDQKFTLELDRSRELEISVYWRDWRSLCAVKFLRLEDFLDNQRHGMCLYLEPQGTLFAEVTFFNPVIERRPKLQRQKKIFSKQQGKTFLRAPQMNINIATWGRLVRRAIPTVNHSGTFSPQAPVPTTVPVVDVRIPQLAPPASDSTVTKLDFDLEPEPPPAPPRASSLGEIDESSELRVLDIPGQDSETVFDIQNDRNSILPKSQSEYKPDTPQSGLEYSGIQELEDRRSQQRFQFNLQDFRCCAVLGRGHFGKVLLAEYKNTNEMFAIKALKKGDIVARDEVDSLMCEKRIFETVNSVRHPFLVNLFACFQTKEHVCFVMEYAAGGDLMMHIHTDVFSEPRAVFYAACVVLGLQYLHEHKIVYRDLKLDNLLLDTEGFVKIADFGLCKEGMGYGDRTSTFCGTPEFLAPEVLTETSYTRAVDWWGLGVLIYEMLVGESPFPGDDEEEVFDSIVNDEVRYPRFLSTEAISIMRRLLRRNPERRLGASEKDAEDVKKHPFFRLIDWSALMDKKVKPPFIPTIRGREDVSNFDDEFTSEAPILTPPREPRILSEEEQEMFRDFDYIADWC

[8] = target: T2, Muscle, skeletal receptor tyrosine-protein kinase (Homo sapiens) (UniProt O15146); experiment: Selectivity interaction (KinomeScan (DiscoverX)) EUB0000092b MUSK; details: at 10 µM
T2 sequence (whole entry): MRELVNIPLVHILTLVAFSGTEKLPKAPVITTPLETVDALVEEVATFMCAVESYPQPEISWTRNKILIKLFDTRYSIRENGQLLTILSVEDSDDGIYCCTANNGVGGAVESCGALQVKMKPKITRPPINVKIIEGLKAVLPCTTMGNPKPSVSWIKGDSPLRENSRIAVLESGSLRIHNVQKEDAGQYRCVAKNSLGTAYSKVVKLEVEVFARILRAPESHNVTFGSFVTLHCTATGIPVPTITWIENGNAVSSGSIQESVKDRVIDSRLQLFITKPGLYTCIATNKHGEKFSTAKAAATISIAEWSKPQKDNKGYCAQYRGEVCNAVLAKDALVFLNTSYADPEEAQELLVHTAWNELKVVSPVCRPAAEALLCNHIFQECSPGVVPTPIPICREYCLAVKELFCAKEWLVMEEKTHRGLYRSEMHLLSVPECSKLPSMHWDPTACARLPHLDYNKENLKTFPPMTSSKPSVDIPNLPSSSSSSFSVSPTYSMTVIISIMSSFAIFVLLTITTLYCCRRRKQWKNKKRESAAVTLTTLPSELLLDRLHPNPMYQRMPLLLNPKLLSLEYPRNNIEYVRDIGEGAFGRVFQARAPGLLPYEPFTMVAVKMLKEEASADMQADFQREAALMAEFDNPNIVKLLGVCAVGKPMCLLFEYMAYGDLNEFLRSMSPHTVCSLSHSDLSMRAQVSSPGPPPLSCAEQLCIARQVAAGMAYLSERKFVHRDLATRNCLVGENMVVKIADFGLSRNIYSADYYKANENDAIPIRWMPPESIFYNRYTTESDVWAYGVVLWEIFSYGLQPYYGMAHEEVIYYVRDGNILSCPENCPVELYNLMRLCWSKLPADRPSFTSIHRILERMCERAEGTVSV

Sequence of Cyclin-dependent kinase 8 (P49336 whole entry): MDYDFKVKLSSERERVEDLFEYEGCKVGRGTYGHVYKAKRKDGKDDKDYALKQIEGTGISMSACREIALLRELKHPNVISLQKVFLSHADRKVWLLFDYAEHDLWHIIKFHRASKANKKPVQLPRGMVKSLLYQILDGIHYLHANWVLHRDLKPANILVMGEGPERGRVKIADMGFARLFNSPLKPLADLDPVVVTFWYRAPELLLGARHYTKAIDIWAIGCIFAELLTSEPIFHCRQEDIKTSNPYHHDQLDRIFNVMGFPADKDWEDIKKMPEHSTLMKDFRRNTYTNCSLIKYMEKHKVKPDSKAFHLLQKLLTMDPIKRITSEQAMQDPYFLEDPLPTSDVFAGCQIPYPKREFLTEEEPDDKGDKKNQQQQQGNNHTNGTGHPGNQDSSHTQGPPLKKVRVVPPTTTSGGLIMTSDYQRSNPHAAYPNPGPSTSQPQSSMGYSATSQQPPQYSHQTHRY

Structure (SMILES): O=C(NOC[C@H](O)CO)c1ccc(F)c(F)c1Nc1ccc(I)cc1F
% of control [1]: 100%

% of inhibition [2]: 10.5%
Structure (SMILES): CC[C@@H]1[C@H](F)C(=O)N[C@@H]1COc1nccc2cc(C(N)=O)c(OC)cc12 [ZIMLOVISERTIB]

Structure (SMILES): COc1cc(Nc2nc(C)cc(-c3cnn4nc(OC)ccc34)n2)cc(C(F)(F)F)c1
% of control [3]: 100%

Structure (SMILES): CC(C)(O)[C@H](F)CN1Cc2cc(NC(=O)c3cnn4cccnc34)c(N3CCOCC3)cc2C1=O
dTM [4]: -0.2 K

Structure (SMILES): CN(C)CCOc1ccc(-c2nc(-c3ccncc3)c(-c3ccc4c(c3)CC/C4=N\O)[nH]2)cc1
% of control [5]: 11%

IC50 [6]: > 10 µM
Structure (SMILES): CCc1cccc(CC)c1NC(=O)c1nn(C)c2c1CCc1cnc(Nc3ccc(C(=O)NC4CCN(C)CC4)cc3OC(F)(F)F)nc1-2

Structure (SMILES): Nc1cnc(N2CCc3cc(S(=O)(=O)Nc4c(F)cc(Cl)cc4F)cc(N4CCCC4=O)c32)nc1 [TP-020n]
% of control [7]: 100%

Structure (SMILES): CCC(=O)N1CCN(c2ccc(-n3c(=O)ccc4cnc5ccc(-c6cnc7ccccc7c6)cc5c43)cc2C(F)(F)F)CC1
% of control [8]: 100%
